# Measured values as given in ChEMBL document CHEMBL1201862, “PubChem BioAssay data set” (2004).
# Activity calls are given as the source filed them. Cut-off read from the data, not from the text of the source, for most assays here: actives have a measured IC50 and inactives only a lower limit.
# Legend:
# [1] = target: T1, Caspase-3 (Homo sapiens, UniProt P42574); test: SAR Analysis of small molecule inhibitors of Sentrin-specific proteases (SENPs) using a Caspase-3 Selectivity assay. [Related pubchem assays (depositor defined):AID2540, AID2599, AID434973, AID489001]; type: functional
# T1 sequence (P42574 whole entry): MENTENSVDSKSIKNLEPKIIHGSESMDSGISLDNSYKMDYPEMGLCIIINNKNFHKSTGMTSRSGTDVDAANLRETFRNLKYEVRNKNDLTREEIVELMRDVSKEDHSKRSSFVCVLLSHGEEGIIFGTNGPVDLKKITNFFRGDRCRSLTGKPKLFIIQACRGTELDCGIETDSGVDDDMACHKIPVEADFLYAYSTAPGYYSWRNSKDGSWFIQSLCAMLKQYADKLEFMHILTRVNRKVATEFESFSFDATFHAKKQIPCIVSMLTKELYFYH
# [2] = target: T2, Sentrin-specific protease 8 (Homo sapiens, UniProt Q96LD8); test: SENP8 protease inhibitors, SAR follow-up, biochemical, luminescence (AID 504501); type: functional
# T2 sequence (Q96LD8 whole entry): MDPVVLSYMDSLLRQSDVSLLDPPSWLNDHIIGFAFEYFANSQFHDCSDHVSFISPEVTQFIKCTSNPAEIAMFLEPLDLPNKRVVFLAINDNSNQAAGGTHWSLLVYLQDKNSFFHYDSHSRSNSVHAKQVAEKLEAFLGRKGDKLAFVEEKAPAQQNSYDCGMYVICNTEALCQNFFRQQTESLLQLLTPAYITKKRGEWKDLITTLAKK
# [3] = target: T3, Sentrin-specific protease 6 (Homo sapiens, UniProt Q9GZR1); test: SAR Analysis of small molecule inhibitors of Sentrin-specific protease 6 (SENP6) using a Luminescent assay. [Related pubchem assays (depositor defined):AID2582, AID2599]; type: functional
# T3 sequence (Q9GZR1 whole entry): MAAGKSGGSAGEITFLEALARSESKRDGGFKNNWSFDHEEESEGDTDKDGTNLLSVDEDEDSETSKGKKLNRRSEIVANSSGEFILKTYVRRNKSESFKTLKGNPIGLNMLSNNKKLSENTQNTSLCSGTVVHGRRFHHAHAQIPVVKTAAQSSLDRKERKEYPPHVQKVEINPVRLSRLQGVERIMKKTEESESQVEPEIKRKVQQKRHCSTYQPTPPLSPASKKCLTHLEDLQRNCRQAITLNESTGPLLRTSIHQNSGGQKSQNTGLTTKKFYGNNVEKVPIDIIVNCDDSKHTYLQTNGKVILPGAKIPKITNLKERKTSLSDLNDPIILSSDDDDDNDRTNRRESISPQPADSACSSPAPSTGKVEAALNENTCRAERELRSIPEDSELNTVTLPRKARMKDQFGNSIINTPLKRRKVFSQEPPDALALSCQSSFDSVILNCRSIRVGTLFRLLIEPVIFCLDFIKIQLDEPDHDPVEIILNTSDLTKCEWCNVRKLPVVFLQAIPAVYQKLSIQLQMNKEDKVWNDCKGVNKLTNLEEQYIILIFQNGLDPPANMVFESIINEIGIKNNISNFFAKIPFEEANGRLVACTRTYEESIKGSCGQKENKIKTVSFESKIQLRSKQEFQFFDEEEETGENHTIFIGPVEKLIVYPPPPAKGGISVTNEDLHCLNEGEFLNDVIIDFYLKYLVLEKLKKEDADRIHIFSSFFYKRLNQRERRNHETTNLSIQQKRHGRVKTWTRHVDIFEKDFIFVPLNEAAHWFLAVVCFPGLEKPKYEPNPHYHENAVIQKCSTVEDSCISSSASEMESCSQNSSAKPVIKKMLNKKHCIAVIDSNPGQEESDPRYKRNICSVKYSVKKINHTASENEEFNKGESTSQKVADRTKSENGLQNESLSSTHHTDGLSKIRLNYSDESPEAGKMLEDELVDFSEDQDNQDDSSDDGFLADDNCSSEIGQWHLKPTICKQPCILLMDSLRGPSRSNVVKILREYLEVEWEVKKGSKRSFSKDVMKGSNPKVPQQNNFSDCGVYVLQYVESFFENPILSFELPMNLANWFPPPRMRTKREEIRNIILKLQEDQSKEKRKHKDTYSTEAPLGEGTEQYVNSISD
# [4] = target: T1, Caspase-3; test: caspase-3 inhibitors as off-family protease, SAR follow-up, selectivity assay for SENP protease inhibitor project, biochemical, luminescence, set 2 (AID 588599); type: functional
# [5] = target: T2, Sentrin-specific protease 8; test: SENP8 protease inhibitors, SAR follow-up, biochemical, luminescence, set 2 (AID 588601); type: functional
# [6] = target: T4, Sentrin-specific protease 7 (Homo sapiens, UniProt Q9BQF6); test: SENP7 protease inhibitors, SAR follow-up, biochemical, luminescence, set 2 (AID 588600); type: functional
# T4 sequence (Q9BQF6 whole entry): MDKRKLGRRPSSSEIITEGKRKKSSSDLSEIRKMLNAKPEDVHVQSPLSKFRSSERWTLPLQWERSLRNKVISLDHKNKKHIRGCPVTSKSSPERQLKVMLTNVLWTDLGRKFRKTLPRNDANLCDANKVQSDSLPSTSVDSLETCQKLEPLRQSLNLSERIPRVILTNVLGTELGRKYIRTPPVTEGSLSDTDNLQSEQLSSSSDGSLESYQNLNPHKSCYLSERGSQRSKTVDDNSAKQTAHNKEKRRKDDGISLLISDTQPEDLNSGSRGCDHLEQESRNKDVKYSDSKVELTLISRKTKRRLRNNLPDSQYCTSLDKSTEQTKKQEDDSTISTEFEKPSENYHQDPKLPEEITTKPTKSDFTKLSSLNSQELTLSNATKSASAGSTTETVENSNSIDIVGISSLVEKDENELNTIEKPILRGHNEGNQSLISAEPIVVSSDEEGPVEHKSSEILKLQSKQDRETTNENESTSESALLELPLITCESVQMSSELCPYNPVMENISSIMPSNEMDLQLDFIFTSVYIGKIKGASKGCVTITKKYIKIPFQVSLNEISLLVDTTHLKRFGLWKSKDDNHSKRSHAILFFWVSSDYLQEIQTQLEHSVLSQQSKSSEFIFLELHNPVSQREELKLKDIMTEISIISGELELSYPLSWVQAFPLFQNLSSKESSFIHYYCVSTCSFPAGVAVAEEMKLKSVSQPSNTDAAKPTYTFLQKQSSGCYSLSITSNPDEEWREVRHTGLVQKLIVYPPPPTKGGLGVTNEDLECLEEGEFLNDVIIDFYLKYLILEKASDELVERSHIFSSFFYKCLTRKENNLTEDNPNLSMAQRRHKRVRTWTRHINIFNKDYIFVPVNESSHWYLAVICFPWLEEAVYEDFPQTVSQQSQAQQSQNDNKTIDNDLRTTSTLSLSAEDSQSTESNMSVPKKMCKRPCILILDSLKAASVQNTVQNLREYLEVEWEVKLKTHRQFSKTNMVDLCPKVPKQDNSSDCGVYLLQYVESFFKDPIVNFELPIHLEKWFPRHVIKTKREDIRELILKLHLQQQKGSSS
# [7] = target: T4, Sentrin-specific protease 7; test: SENP7 protease inhibitors, SAR follow-up, biochemical, luminescence (AID 504497); type: functional
# [8] = target: T3, Sentrin-specific protease 6; test: SENP6 protease inhibitors, SAR follow-up, biochemical, luminescence, set 2 (AID 588598); type: functional
# [9] = system: HeLa; test: HeLa cell cytotoxicity, dose response, cytotoxicity control, 48 h, plate reader, cherry-picks (AID 504942); type: functional, cell-based; details: Homo sapiens
# [10] = target: T5, Acyl-homoserine lactone acylase PvdQ (Pseudomonas aeruginosa (strain LESB58), UniProt Q9I194); test: P. aeruginosa PvdQ acylase inhibitors, dose response, biochemical, fluorescence, plate reader and imaging, cherry-picks (AID 493231)
# T5 sequence (Q9I194 whole entry): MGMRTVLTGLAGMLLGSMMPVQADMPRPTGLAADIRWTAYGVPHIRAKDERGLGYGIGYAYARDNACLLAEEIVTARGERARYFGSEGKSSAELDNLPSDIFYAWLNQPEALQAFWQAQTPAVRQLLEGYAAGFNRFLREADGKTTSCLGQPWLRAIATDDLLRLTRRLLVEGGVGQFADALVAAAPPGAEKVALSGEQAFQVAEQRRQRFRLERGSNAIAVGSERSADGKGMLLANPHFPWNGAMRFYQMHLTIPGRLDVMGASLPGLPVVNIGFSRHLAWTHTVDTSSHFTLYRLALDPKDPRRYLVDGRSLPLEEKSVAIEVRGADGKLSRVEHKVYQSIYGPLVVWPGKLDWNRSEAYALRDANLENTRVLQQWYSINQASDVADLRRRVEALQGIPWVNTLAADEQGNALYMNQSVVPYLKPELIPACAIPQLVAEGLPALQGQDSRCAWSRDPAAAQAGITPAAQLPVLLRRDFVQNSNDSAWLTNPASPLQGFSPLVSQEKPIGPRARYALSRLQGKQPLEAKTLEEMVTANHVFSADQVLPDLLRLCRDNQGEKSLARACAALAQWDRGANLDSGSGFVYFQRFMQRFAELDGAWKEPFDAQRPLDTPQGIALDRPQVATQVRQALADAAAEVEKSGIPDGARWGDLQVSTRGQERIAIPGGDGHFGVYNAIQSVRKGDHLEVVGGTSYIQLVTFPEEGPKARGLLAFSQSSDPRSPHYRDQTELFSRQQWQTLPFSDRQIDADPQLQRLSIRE
# [11] = target: Voltage-dependent T-type calcium channel subunit alpha-1H (Homo sapiens, UniProt O95180); type: functional;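 note: channel activity triggered by adding a high calcium stimulation buffer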
# [12] = target: T6, Endoribonuclease toxin MazF (Escherichia coli K-12, UniProt P0AE70); test: MazF toxin RNase activators, dose response, biochemical, fluorescence, single-stranded RNA substrate, uHTS hits (AID 588481); type: functional
# [13] = target: Ephrin type-A receptor 4 (Mus musculus, UniProt Q03137); test: inhibitors of EphA4 binding to KYL peptide, primary screen, biochemical, colorimetric, mouse EphA4 (AID 689); type: functional
# [14] = target: T7, Corticotropin-releasing factor receptor 2/Corticotropin-releasing factor-binding protein (Homo sapiens, UniProt P24387+Q13324); test: activators of CRF receptor 2 with binding protein – uHTS hits, confirmation (AID 602473); type: functional; details: read-out: EC50_Mean
# T7 sequence (Q13324 whole entry): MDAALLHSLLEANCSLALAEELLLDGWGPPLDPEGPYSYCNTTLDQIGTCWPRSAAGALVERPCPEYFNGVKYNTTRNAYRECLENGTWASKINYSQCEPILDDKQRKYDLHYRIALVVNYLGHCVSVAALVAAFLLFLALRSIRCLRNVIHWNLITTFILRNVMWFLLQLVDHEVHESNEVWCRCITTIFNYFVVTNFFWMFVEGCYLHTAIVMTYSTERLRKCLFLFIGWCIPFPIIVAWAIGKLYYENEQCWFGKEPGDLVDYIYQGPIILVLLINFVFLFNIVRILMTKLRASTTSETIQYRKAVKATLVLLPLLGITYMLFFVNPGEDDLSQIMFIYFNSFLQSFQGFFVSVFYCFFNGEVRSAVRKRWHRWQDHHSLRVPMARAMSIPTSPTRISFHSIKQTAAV
# T7 sequence (P24387 whole entry): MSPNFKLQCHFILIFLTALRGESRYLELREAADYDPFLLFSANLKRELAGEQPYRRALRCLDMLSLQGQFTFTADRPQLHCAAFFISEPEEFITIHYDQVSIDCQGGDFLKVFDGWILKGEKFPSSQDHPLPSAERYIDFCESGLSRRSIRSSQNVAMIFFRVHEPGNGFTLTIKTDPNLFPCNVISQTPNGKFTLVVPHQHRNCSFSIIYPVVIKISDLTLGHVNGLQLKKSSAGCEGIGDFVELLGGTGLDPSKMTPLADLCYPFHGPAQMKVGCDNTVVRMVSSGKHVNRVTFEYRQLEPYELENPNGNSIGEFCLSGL
# [15] = target: T8, Zinc finger protein mex-5 (Caenorhabditis elegans, UniProt Q9XUB2); test: MEX-5/TCR-2 RNA interaction inhibitors, dose response, biochemical, C. elegans, fluorescence polarization (AID 1960)
# T8 sequence (Q9XUB2 whole entry): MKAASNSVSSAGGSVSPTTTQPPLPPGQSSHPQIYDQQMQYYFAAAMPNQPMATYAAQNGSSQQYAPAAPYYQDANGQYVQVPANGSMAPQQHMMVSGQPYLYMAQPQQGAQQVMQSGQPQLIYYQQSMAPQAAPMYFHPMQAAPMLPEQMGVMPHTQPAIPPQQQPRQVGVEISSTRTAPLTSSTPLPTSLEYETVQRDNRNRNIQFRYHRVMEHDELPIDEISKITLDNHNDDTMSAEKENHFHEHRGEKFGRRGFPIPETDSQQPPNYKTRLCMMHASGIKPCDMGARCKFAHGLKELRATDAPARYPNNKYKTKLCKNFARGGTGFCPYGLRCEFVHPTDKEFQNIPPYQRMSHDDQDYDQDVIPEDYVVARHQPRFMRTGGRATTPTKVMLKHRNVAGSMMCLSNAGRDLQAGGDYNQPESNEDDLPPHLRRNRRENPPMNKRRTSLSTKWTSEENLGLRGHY
# [16] = target: T6, Endoribonuclease toxin MazF; test: fluorescent RNA oligo signal without MazF, dose response, counter-screen for MazEF activator project, biochemical, fluorescence, single-stranded RNase substrate (AID 588502); type: functional
# [17] = target: T9, RNA-binding protein pos-1 (Caenorhabditis elegans, UniProt G5EF15); test: inhibitors of POS-1/mex-3 RNA binding, dose response, biochemical, fluorescence polarization (AID 1964);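 note: purified POS-1 fused to maltose binding protein made in E. coli; potency of compounds blocking POS-1 binding to fluorescent RNA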
# T9 sequence (G5EF15 whole entry): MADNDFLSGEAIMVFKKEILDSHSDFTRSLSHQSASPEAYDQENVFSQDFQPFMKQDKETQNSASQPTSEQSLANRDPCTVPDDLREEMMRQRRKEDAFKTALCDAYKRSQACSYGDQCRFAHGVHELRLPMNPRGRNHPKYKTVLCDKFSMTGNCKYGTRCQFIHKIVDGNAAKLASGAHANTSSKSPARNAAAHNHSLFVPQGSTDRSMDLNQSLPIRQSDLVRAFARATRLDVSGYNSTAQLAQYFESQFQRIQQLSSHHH
# T6 sequence (P0AE70 whole entry): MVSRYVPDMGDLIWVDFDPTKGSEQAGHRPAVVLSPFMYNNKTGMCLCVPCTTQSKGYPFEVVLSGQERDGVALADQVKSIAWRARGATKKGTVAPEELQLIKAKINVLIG
# Chain of Ephrin type-A receptor 4 (Q03137 whole entry): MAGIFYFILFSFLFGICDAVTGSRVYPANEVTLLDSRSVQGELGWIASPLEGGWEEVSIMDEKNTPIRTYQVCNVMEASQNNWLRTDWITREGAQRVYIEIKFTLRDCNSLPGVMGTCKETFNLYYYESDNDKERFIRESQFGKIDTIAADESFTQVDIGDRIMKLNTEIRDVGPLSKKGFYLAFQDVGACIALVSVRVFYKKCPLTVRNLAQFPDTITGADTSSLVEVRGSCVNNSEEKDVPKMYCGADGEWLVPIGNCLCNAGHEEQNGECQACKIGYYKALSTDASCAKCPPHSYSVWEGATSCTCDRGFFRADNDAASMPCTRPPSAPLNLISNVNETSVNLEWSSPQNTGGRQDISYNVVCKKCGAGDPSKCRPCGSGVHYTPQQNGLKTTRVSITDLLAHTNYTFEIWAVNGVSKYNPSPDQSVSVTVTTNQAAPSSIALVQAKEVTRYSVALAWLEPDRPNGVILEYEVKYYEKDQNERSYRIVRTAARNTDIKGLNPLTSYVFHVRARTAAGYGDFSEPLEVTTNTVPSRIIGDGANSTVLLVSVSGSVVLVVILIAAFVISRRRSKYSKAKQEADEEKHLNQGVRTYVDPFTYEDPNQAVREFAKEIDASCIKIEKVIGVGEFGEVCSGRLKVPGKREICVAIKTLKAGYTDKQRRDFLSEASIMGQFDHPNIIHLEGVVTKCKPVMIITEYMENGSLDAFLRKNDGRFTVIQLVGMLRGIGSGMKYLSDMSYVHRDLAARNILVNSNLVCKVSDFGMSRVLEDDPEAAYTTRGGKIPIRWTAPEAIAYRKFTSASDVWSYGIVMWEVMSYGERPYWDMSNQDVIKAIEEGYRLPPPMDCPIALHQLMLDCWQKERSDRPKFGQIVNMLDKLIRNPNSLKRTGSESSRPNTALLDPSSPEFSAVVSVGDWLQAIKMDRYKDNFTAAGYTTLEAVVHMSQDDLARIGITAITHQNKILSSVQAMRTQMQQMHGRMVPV
# Chain of Voltage-dependent T-type calcium channel subunit alpha-1H (O95180 whole entry): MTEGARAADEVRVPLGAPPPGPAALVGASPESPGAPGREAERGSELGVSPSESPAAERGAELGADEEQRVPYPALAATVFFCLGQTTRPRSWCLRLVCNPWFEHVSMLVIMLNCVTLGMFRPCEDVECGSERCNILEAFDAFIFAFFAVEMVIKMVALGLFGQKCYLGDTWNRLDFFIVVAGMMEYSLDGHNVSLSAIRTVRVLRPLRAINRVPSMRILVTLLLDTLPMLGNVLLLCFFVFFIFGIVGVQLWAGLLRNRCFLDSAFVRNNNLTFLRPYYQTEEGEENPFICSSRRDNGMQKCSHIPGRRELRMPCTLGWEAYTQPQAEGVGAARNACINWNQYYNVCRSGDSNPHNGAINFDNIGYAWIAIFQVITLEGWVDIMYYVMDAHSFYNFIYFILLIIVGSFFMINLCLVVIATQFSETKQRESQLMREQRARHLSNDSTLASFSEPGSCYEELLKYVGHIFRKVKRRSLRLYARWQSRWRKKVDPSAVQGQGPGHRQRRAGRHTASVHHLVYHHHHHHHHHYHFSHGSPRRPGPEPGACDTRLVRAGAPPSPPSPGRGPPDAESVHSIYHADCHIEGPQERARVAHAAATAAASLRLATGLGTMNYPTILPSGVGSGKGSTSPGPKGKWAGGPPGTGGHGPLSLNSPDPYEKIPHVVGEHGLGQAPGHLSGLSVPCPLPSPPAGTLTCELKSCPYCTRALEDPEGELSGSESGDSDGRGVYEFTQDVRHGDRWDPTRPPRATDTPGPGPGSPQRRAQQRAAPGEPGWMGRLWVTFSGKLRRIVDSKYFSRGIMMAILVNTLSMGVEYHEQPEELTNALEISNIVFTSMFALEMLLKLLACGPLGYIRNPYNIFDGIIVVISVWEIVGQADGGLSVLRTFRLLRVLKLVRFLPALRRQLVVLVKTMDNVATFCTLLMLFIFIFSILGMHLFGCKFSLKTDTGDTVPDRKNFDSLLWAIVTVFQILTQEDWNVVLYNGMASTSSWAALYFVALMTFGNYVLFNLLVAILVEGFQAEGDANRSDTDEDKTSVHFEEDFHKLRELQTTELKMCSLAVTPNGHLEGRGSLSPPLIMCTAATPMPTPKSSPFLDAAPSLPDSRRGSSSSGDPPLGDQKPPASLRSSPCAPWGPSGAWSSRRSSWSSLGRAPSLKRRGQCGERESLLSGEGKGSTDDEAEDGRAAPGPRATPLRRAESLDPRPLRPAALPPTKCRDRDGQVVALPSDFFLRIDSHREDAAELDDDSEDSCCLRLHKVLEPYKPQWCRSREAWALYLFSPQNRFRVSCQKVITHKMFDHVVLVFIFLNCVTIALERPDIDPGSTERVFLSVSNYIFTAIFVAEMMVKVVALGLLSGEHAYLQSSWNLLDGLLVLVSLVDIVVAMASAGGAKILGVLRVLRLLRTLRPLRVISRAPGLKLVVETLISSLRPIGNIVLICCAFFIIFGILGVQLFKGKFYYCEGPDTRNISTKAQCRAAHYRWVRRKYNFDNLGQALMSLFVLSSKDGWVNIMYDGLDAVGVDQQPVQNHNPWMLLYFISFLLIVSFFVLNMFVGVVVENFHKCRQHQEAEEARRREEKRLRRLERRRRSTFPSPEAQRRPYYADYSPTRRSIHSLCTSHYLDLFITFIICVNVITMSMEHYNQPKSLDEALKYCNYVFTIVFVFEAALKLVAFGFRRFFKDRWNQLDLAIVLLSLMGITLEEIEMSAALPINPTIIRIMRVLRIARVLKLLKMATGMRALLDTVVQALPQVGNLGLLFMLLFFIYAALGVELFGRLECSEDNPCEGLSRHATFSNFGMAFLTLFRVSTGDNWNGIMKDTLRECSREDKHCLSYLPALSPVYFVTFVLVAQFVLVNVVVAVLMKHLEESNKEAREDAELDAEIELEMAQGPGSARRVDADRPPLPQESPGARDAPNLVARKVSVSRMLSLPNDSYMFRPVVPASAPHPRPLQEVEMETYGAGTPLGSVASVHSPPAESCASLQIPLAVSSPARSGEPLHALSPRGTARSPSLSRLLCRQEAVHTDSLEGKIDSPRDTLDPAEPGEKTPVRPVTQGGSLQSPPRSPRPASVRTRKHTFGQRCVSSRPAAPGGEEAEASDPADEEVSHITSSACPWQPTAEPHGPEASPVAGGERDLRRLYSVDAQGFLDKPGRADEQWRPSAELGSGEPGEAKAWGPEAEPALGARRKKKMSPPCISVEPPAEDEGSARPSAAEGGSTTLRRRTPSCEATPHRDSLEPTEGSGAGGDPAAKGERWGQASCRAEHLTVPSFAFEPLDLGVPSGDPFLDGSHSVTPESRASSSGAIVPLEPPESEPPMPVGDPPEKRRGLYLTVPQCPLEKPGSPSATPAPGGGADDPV
structure (smiles),measurement,setting,value
Fc1ccc(/C=C/c2noc(-c3c(F)cccc3F)n2)cc1,IC50,[1],34 µM (active)
same,IC50,[2],> 99 µM (inactive)
same,IC50,[3],> 99 µM (inactive)
same,IC50,[4],30.8 µM (active)
same,IC50,[5],4.97 µM (active)
same,IC50,[6],5.86 µM (active)
same,IC50,[7],11 µM (active)
same,IC50,[8],4.72 µM (active)
Cn1cccc1C(=O)OCc1cc(-c2ccco2)on1,AC50,[9],> 380 µM (inactive)
same,AC50,[10],11.1 µM (active)
CC(C)(C)C(=O)c1sc2nc(-c3cccs3)cc(C(F)(F)F)c2c1N,EC50,[11],2.59 µM (active)
same,EC50,[12],> 99 µM (inactive)
same,IC50,[13],9.9 µM (active)
same,EC50,[14],18 µM (active)
same,EC50,[15],> 300 µM (inconclusive)
same,EC50,[16],> 99 µM (inactive)
same,EC50,[17],> 300 µM (not active)
